According to PMC3198036 (Frontiers in Pharmacology, 2011):
Values joined by “and” are separate entries in the source; they are usually repeats but may differ in a detail not shown here. Equal entries are not always repeated. Structures can show the parent of a compound that is named as a salt. Where two headings read alike, the source gives them in different places.

What was measured:
[1] = system: nicotinic acetylcholine receptors (nAChRs), [^3H]-epibatidine binding sites in rat cerebral cortex
[2] = system: nicotinic acetylcholine receptors (nAChRs), [^3H]-epibatidine binding sites in rat cerebral cortex; experiment: Homogenate binding assay with [^3H]-epibatidine, rat cerebral cortex homogenates
[3] = target: nicotinic acetylcholine receptors (nAChRs), [^3H]-epibatidine binding sites in rat cerebellum
[4] = system: nAChRs ([^3H]-epibatidine binding sites) in rat cortex and cerebellum; conditions: in vivo
[5] = system: nicotinic acetylcholine receptors (nAChRs), [^3H]-epibatidine binding sites in rat cerebellum; remark: listed apart in the source

SMILES	Competition in the [^3H]-epibatidine binding assay [1]	Competition in the [^3H]-epibatidine binding assay [2]	pKihigh [1]	pKilow [1]	pKi (single site; one-site fit) [2]	pKihigh [2]	pKilow [2]	other results
CNC1(C)C2CCC(C2)C1(C)C (stereo not drawn) [Mecamylamine, mecamylamine hydrochloride]	failed to compete	failed to compete						pKi (single site; cell spans pKihigh and pKilow columns) ([1]; cortex segments, 400 pM [^3H]-epibatidine, 28 h, 4°C): NI (NI, no inhibition); pKi (single site; one-site fit) ([2]; cortex homogenates, 200 pM [^3H]-epibatidine, 5 h, 4°C): NI (NI, no inhibition)
CN1CCC[C@H]1c1cccnc1 [Nicotine, nicotine]			7.8 ± 0.2 and 7.9 ± 0.1	6.3 ± 0.2 and 6.5 ± 0.1	8.4 ± 0.1			pKihigh [3]: 8.2 ± 0.1; pKilow [3]: 6.3 ± 0.1; Upregulation of nAChRs [4]: no upregulation; pKi [2]: 8.1 ± 0.1; pKi (single site; cell spans pKihigh and pKilow columns) [5]: 7.1 ± 0.2
C[N+](C)(C)CCCCCC[N+](C)(C)C [Hexamethonium, hexamethonium chloride]	competitive	competitive			4.0 ± 0.1			pKi (single site; cell spans pKihigh and pKilow columns) [1]: 3.4 ± 0.1
O=c1cccc2n1C[C@@H]1CNC[C@H]2C1 [Cytisine, cytisine]			8.7 ± 0.1	6.7 ± 0.1		9.4 ± 0.0	7.2 ± 0.2	
CO[C@H]1CC=C2CCN3CCC4=C(CC(=O)OC4)[C@]23C1 [Dihydro-β-erythroidine, dihydro-β-erythroidine]			7.1 ± 0.1	5.7 ± 0.2		7.7 ± 0.2	6.3 ± 0.1	
